Each structure is given as a SMILES string.

One test concerns the target hFEN1 (Homo sapiens (Human), UniProt P39748). The test is described as follows: Enzymatic IC50 assay, FAM-labeled DNA oligomer substrate, fluorescence intensity (FEN1). The format is biochemical. Conditions: hFEN1 70 pM, substrate 100 nM, reaction time 20 minutes, 23° C. The essentials:
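FEN1, EXO1 or XPG was preincubated 15 min with compound, then the FAM-labelled DNA oligomer substrate was added in Tris-HCl pH 8.0 with 10 mM MgCl2 at 23° C. FEN1 was 70 pM with 100 nM substrate for 20 min, EXO1 6 nM with 30 nM for 60 min, and XPG 100 nM with 100 nM for 120 min. Reactions were EDTA-stopped and read by fluorescence intensity.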

Another test deals with hEXO1, Isoform1 (Homo sapiens (Human), UniProt Q9UQ84). The test is described as follows: Enzymatic IC50 assay, FAM-labeled DNA oligomer substrate, fluorescence intensity (EXO1). It counts as biochemical. Particulars: hEXO1 6 nM, substrate 30 nM, reaction time 60 minutes, 23° C. As for the experimental part:
FEN1, EXO1 or XPG enzyme was incubated with compound or vehicle (DMSO) and the FAM-labeled DNA oligomer substrate in a microtiter plate. The stop buffer contains EDTA to stop the enzymatic reaction. The plate is read for fluorescence intensity. The high control (DMSO) with high fluorescence intensity represents no inhibition of enzymatic reaction while the low control (10 μM) with low fluorescence intensity represents full inhibition of enzymatic reaction.
• FEN1 • hFEN1: 70 pM • Substrate: 100 nM • Reaction time: 20 minutes • EXO1 • hEXO1: 6 nM, Isoforml • Substrate: 30 nM • Reaction time: 60 minutes • XPG • hXPG: 100 nM • Substrate: 100 nM • Reaction time: 120 minutes
Annealing Buffer: 50 mM Tris-HCl, 50 mM NaCl, 1 mM DTT Assay buffer: 50 mM Tris-HCl pH 8.0, 10 mM MgCl2, 0.01% BSA, 1 mM DTT Stop buffer: 50 mM EDTA in assay buffer Temperature: 23° C. Total volume: 40 μl Controls: • 0% inhibition control: DMSO • 100% inhibition control: 10 μM (final) 5-chloro-3-hydroxy-1,3-dihydroquinazoline-2,4-dione Enzyme Reaction and Detection: • 1. Prepare 25 μM intermediate stock of the substrate by diluting SEQ ID NO:1, SEQ ID NO:2, and SEQ ID NO:3 in annealing buffer, in a PCR tube. • 2. Place the PCR tube on a heat block, heat at 95° C. for 3 minutes, then drop in 0.2° C. increments over 2 minutes, stopping at 25° C. • 3. Remove the tube and let the tube cool at room temperature. • 4. Transfer 10 μL of 3× final concentration test compounds or DMSO to the appropriate wells of a microtiter plate. • 5. Transfer 10 μL of 3× final concentration enzyme in assay buffer or assay buffer alone to the appropriate wells. • 6. Incubate the plate at room temperature for 15 minutes. • 7. Transfer 10 μL of 3× substrate in assay buffer to all the test wells. • 8. Incubate the plate at room temperature for prescribed reaction time. • 9. Centrifuge the plate at 1000 rpm for 1 minute. • 10. Transfer 10 μL of stop buffer to all the test wells. • 11. Centrifuge the plate at 1000 rpm for 1 minute. • 12. Read the plate on a plate reader.

Sequence of hFEN1 (P39748 whole entry): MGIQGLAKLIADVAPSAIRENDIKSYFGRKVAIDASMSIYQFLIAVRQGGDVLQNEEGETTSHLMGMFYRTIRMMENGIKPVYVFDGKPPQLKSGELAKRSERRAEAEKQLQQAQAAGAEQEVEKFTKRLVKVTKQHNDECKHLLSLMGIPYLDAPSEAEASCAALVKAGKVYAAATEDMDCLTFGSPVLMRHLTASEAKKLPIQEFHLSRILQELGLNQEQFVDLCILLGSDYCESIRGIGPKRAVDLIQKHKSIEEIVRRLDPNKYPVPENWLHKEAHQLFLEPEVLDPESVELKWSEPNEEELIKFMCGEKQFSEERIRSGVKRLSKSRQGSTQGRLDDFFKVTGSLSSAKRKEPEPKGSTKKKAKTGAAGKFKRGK
Sequence of hEXO1, Isoform1 (Q9UQ84 whole entry, canonical isoform): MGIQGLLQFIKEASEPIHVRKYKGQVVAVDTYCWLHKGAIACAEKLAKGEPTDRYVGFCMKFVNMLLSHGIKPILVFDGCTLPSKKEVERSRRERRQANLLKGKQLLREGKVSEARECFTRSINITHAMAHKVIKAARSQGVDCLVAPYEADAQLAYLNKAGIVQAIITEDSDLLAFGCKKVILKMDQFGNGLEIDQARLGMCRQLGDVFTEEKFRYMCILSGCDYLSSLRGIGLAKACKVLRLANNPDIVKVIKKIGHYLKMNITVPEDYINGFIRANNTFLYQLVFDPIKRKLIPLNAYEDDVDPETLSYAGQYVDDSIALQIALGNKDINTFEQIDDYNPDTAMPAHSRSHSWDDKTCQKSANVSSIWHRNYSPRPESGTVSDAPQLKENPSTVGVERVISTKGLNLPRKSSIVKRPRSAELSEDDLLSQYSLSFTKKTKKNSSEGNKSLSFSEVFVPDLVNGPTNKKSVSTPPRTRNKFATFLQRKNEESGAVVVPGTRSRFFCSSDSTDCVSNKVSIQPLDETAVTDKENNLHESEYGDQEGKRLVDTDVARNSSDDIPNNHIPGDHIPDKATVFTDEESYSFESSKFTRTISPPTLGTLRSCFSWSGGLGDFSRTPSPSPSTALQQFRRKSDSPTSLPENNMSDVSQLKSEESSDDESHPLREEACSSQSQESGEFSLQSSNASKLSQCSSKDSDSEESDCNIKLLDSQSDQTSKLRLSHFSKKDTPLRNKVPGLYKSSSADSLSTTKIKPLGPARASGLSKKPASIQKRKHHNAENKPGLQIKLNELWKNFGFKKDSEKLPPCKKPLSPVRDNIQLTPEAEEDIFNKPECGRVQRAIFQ

For orientation: IC50 means the midpoint of a concentration-inhibition curve. Read a high IC50 as a need for much substance. For the compound `COc1ccc(-c2ncc(Cn3c(=O)c(O)c(C(=O)O)c4sccc43)s2)cc1` [Example 32, 6-hydroxy-4-{[2-(4-methoxyphenyl)thiazol-5-yl]methyl}-5-oxo-4,5-dihydrothieno[3,2-b]pyridine-7-carboxylic acid], the IC50 was in the range of 250 to 750 nM on hFEN1 and 750 to 2250 nM on hEXO1, Isoform1.

In the case of `O=C(O)c1c(O)c(=O)n(Cc2ccccc2[N+](=O)[O-])c2ccsc12` [Example 37, 6-hydroxy-4-(2-nitrobenzyl)-5-oxo-4,5-dihydrothieno[3,2-b]pyridine-7-carboxylic acid], the IC50 on hFEN1 is 250 to 750 nM; against hEXO1, Isoform1, 2250 to 10000 nM.

Take `CCOC(=O)c1c(O)c(=O)n(Cc2ccc(N)cc2)c2ccsc12` [Example 41, ethyl 4-(4-aminobenzyl)-6-hydroxy-5-oxo-4,5-dihydrothieno[3,2-b]pyridine-7-carboxylate]: the IC50 is 250 to 750 nM against hFEN1 and 2250 to 10000 nM at hEXO1, Isoform1.

In the case of `O=C(O)c1c(O)c(=O)n(CC2CCCC2)c2ccsc12` [Example 45, 4-(cyclopentylmethyl)-6-hydroxy-5-oxo-4,5-dihydrothieno[3,2-b]pyridine-7-carboxylic acid], the IC50 on hFEN1 lay in the range of 2250 to 10000 nM; on hEXO1, Isoform1, 2250 to 10000 nM.

Turning to `N#Cc1ccc(Cn2c(=O)c(O)c(C(=O)O)c3sccc32)cc1` [Example 48, 4-(4-cyanobenzyl)-6-hydroxy-5-oxo-4,5-dihydrothieno[3,2-b]pyridine-7-carboxylic acid], the IC50 on hFEN1 lay in the range of 2250 to 10000 nM; against hEXO1, Isoform1, 2250 to 10000 nM.

`CC(=O)N1CCCC(Cn2c(=O)c(O)c(C(=O)O)c3sccc32)C1` (centres unmarked) [Example 49, 4-((1-acetylpiperidin-3-yl)methyl)-6-hydroxy-5-oxo-4,5-dihydrothieno[3,2-b]pyridine-7-carboxylic acid]: the IC50 fell in the range of 2250 to 10000 nM on hFEN1 and 2250 to 10000 nM at hEXO1, Isoform1.

Regarding `O=C(O)c1c(O)c(=O)n(CC2CCCNC2)c2ccsc12` (centres unmarked) [Example 62, 6-hydroxy-5-oxo-4-(piperidin-3-ylmethyl)-4,5-dihydrothieno[3,2-b]pyridine-7-carboxylic acid], the IC50 against hFEN1 is 2250 to 10000 nM; against hEXO1, Isoform1, 2250 to 10000 nM.

For the compound `CNC(=O)c1cccc(Cn2c(=O)c(O)c(C(=O)O)c3sccc32)c1` [Example 66, 6-hydroxy-4-[3-(methylcarbamoyl)benzyl]-5-oxo-4,5-dihydrothieno[3,2-b]pyridine-7-carboxylic acid], the IC50 fell in the range of 2250 to 10000 nM against hFEN1 and 2250 to 10000 nM on hEXO1, Isoform1.

For the compound `COc1ccc(Cn2c(=O)c(O)c(C(=O)O)c3sccc32)cc1Cl` [Example 70, 4-(3-chloro-4-methoxybenzyl)-6-hydroxy-5-oxo-4,5-dihydrothieno[3,2-b]pyridine-7-carboxylic acid], the IC50 is less than 200 nM against hFEN1 and 750 to 2250 nM against hEXO1, Isoform1.

Consider `O=C(O)c1c(O)c(=O)n(Cc2cccc3nonc23)c2ccsc12` [Example 72, 4-(benzo[c][1,2,5]oxadiazol-4-ylmethyl)-6-hydroxy-5-oxo-4,5-dihydrothieno[3,2-b]pyridine-7-carboxylic acid], for which the concentration for half-maximal inhibition (IC50) against hFEN1 lay within 2250 to 10000 nM; against hEXO1, Isoform1, 2250 to 10000 nM.

For the compound `Cc1nc(Cn2c(=O)c(O)c(C(=O)O)c3sccc32)cs1` [Example 92, 6-hydroxy-4-[(2-methylthiazol-4-yl)methyl]-5-oxo-4,5-dihydrothieno[3,2-b]pyridine-7-carboxylic acid], the IC50 is 2250 to 10000 nM against hFEN1 and more than 10000 nM on hEXO1, Isoform1.

As to `Cc1nc(Cn2c(=O)c(O)c(C(=O)O)c3sccc32)co1` [Example 96, 6-hydroxy-4-((2-methyloxazol-4-yl)methyl)-5-oxo-4,5-dihydrothieno[3,2-b]pyridine-7-carboxylic acid], the IC50 is more than 10000 nM at hFEN1 and more than 10000 nM against hEXO1, Isoform1.

Regarding `Nc1ccc(Cn2c(=O)c(O)c(C(=O)O)c3sccc32)cn1` [Example 97, 4-[(6-aminopyridin-3-yl)methyl]-6-hydroxy-5-oxo-4,5-dihydrothieno[3,2-b]pyridine-7-carboxylic acid], the IC50 at hFEN1 is less than 200 nM; at hEXO1, Isoform1, 2250 to 10000 nM.

As for `Cn1cc(Cn2c(=O)c(O)c(C(=O)O)c3sccc32)c(-c2ccccc2)n1` [Example 158, 6-hydroxy-4-[(1-methyl-3-phenyl-1H-pyrazol-4-yl)methyl]-5-oxo-4,5-dihydrothieno[3,2-b]pyridine-7-carboxylic acid], the IC50 against hFEN1 lay in the range of 2250 to 10000 nM; at hEXO1, Isoform1, 750 to 2250 nM.

Turning to `Cn1ncc(Cn2c(=O)c(O)c(C(=O)O)c3sccc32)c1-c1ccccc1` [Example 160, 6-hydroxy-4-[(1-methyl-5-phenyl-1H-pyrazol-4-yl)methyl]-5-oxo-4,5-dihydrothieno[3,2-b]pyridine-7-carboxylic acid], the 50% inhibitory concentration (IC50) at hFEN1 was more than 10000 nM; on hEXO1, Isoform1, more than 10000 nM.

For `COc1ccc(-n2cc(Cn3c(=O)c(O)c(C(=O)O)c4sccc43)c(Br)n2)cc1` [Example 161, 4-{[3-bromo-1-(4-methoxyphenyl)-1H-pyrazol-4-yl]methyl}-6-hydroxy-5-oxo-4,5-dihydrothieno[3,2-b]pyridine-7-carboxylic acid], the IC50 fell in the range of 250 to 750 nM on hFEN1 and 750 to 2250 nM against hEXO1, Isoform1.

For `Cc1nn(C)cc1Cn1c(=O)c(O)c(C(=O)O)c2sccc21` [Example 162, 4-[(1,3-dimethyl-1H-pyrazol-4-yl)methyl]-6-hydroxy-5-oxo-4,5-dihydrothieno[3,2-b]pyridine-7-carboxylic acid], the IC50 was in the range of 750 to 2250 nM against hFEN1 and 2250 to 10000 nM against hEXO1, Isoform1.

Consider `O=C(O)Cn1cc(Cn2c(=O)c(O)c(C(=O)O)c3sccc32)cn1` [Example 163, 4-{[1-(carboxymethyl)-1H-pyrazol-4-yl]methyl}-6-hydroxy-5-oxo-4,5-dihydrothieno[3,2-b]pyridine-7-carboxylic acid], for which the half-inhibitory concentration (IC50) was less than 200 nM against hFEN1 and 2250 to 10000 nM at hEXO1, Isoform1.

As for `O=C(O)c1c(O)c(=O)n(Cc2cnc3c(Br)cccn23)c2ccsc12` [Example 164, 4-[(8-bromoimidazo[1,2-a]pyridin-3-yl)methyl]-6-hydroxy-5-oxo-4,5-dihydrothieno[3,2-b]pyridine-7-carboxylic acid], the IC50 was in the range of 250 to 750 nM on hFEN1 and 250 to 750 nM against hEXO1, Isoform1.

Regarding `COc1cc(-c2cccn3c(Cn4c(=O)c(O)c(C(=O)O)c5sccc54)cnc23)ccn1` [Example 165, 6-hydroxy-4-{[8-(2-methoxypyridin-4-yl)imidazo[1,2-a]pyridin-3-yl]methyl}-5-oxo-4,5-dihydrothieno[3,2-b]pyridine-7-carboxylic acid], the IC50 was in the range of 750 to 2250 nM on hFEN1 and 750 to 2250 nM at hEXO1, Isoform1.

Regarding `CS(=O)(=O)c1ccc(-c2ncc(Cn3c(=O)c(O)c(C(=O)O)c4sccc43)s2)cc1` [Example 166, 6-hydroxy-4-({2-[4-(methylsulfonyl)phenyl)thiazol-5-yl)methyl)-5-oxo-4,5-dihydrothieno[3,2-b]pyridine-7-carboxylic acid], the half-maximal inhibitory concentration (IC50) at hFEN1 was 250 to 750 nM; against hEXO1, Isoform1 it was 250 to 750 nM.

For the compound `CS(=O)(=O)Nc1ccc(-c2ncc(Cn3c(=O)c(O)c(C(=O)O)c4sccc43)s2)cc1` [Example 167, 6-hydroxy-4-({2-[4-(methylsulfonamido)phenyl]thiazol-5-yl}methyl)-5-oxo-4,5-dihydrothieno[3,2-b]pyridine-7-carboxylic acid], the IC50 on hFEN1 is less than 200 nM; against hEXO1, Isoform1, 750 to 2250 nM.

Turning to `O=C(O)c1c(O)c(=O)n(Cc2cnc(-c3cccc4cnccc34)s2)c2ccsc12` [Example 168, 6-hydroxy-4-{[2-(isoquinolin-5-yl)thiazol-5-yl]methyl}-5-oxo-4,5-dihydrothieno[3,2-b]pyridine-7-carboxylic acid], the half-inhibitory concentration (IC50) against hFEN1 was in the range of 2250 to 10000 nM; against hEXO1, Isoform1, 2250 to 10000 nM.

Turning to `O=C(O)c1c(O)c(=O)n(Cc2cnc(-c3cccc4ncccc34)s2)c2ccsc12` [Example 169, 6-hydroxy-5-oxo-4-{[2-(quinolin-5-yl)thiazol-5-yl]methyl}-4,5-dihydrothieno[3,2-b]pyridine-7-carboxylic acid], the IC50 lay within 2250 to 10000 nM at hFEN1 and 750 to 2250 nM on hEXO1, Isoform1.

As to `O=C(O)c1c(O)c(=O)n(Cc2cnc(-c3ccnc4ccccc34)s2)c2ccsc12` [Example 170, 6-hydroxy-5-oxo-4-{[2-(quinolin-4-yl)thiazol-5-yl]methyl}-4,5-dihydrothieno[3,2-b]pyridine-7-carboxylic acid], the IC50 on hFEN1 was 750 to 2250 nM; against hEXO1, Isoform1, 750 to 2250 nM.

The values are drawn from patent publication US11584755B2 (IDEAYA BIOSCIENCES, INC., priority 2017, dated 2023).
